# According to ChEMBL document CHEMBL2401725, “Synthesis of new chromeno-annulated cis-fused pyrano[4,3-c]isoxazole derivatives via intramolecular nitrone cycloaddition and their cytotoxicity evaluation” (Bioorg Med Chem Lett, 2013):
# Key:
# Assay type in all cases: functional, cell-based
# A549 = experiment: Cytotoxicity against human A549 cells by MTT assay
# MDA-MB-231 = experiment: Cytotoxicity against human MDA-MB-231 cells by MTT assay
# MCF7 = experiment: Cytotoxicity against human MCF7 cells by MTT assay
# HeLa = experiment: Cytotoxicity against human HeLa cells by MTT assay
SMILES,IC50 (A549) [µM],IC50 (MDA-MB-231) [µM],IC50 (MCF7) [µM],IC50 (HeLa) [µM]
Cc1coc2c3c(ccc2c1=O)OC[C@H]1[C@@H]3N(C2CCCCC2)OC1(C)C,0.194,17.4,22.7,17.5
Cc1oc2c3c(ccc2c(=O)c1C)OC[C@H]1[C@@H]3N(Cc2ccc(F)cc2)OC1(C)C,12.8,7.9,10.1,9.54
Cc1coc2c3c(ccc2c1=O)OC[C@H]1[C@@H]3N(Cc2ccccc2)OC1(C)C,> 100,> 100,> 100,6.61
COc1cccc2c1C(=O)c1c(O)c3c(c(O)c1C2=O)C[C@@](O)(C(=O)CO)C[C@@H]3O[C@H]1C[C@H](N)[C@H](O)[C@H](C)O1 [DOXORUBICIN],1.21,0.501,1.05,0.451
COc1ccc(CN2OC(C)(C)[C@H]3COc4ccc5c(=O)c(-c6ccccc6)c(C)oc5c4[C@H]32)cc1,> 100,> 100,> 100,> 100
COc1ccc(CN2OC(C)(C)[C@H]3COc4ccc5c(=O)c(C)c(C)oc5c4[C@H]32)cc1,11.2,7.81,5.59,> 100
Cc1ccc(CN2OC(C)(C)[C@H]3COc4ccc5c(=O)c(C)c(C)oc5c4[C@H]32)cc1,8.92,5.64,26.5,18.2
Cc1oc2c3c(ccc2c(=O)c1C)OC[C@H]1[C@@H]3N(C2CCCCC2)OC1(C)C,8.96,7.56,> 100,> 100
Cc1ccc(CN2OC(C)(C)[C@H]3COc4ccc5c(=O)c(C)coc5c4[C@H]32)cc1,> 100,> 100,5.3,> 100
Cc1oc2c3c(ccc2c(=O)c1C)OC[C@H]1[C@@H]3N(Cc2ccc(C(C)C)cc2)OC1(C)C,> 100,6.25,7.96,> 100
Cc1oc2c3c(ccc2c(=O)c1C)OC[C@H]1[C@@H]3N(Cc2ccccc2)OC1(C)C,17.9,14.5,5.78,> 100
COc1ccc(CN2OC(C)(C)[C@H]3COc4ccc5c(=O)c(C)coc5c4[C@H]32)cc1,29.4,> 100,7.38,6.54
